# Measured values: patent publication US7368440B2, “Methods for the administration of amifostine and related compounds” (Medimmune Oncology, Inc., priority 2001, dated 2008)
# Read-outs that look alike come from different tables or passages of the source.
# Conditions: human, in vivo
# Description: The reconstituted solution was drawn up in a 10 mL syringe for administration.
# This solution was divided into two syringes (1.25 mL per syringe) for administration.
# During the infusion, the subjects were kept in a supine position. […] Moreover, all subjects were given a standard lunch at noon, a standard dinner at 6:00 PM and a standard snack at 10:00 PM.
# This formulation was administered by gently squirting the solution in the back of the subject's throat. […] All subjects were given a standard lunch at noon, a standard dinner at 6:00 PM and a standard snack at 10:00 PM.
# All subjects were given a standard lunch at noon, a standard dinner at 6:00 PM and a standard snack at 10:00 PM.
# Non-compartmental modelling of the data was performed.
structure (smiles),measurement,setting,value
"NCCCNCCS [WR-1065, S-2-(3-Aminopropyl Amino) ethanethiol]",Relative bioavailability Ratio PO/IV (Metabolite),,0.32
same,Relative bioavailability Ratio SC/IV (Metabolite),,0.71
same,time at which WR-1065 concentration fell below 5 μM,iv,approximately 45 minutes
same,time at which WR-1065 concentration fell below 5 μM,sc,approximately 60 minutes
same,peak levels (maximum whole blood concentration),"male, iv",about 23 μM
same,time within which whole blood concentrations peaked and declined rapidly,"male, iv",≤ 10 min
same,maximum blood levels,"male, sc",~4 µM
same,time to maximum and sustained whole blood concentration,"male, sc",15 to 45 min
